Drawing on ChEMBL document CHEMBL1126387, “Use of transferred nuclear overhauser effects to determine the conformation of 1-(3,4-dichlorophenyl)-2-aminopropane when bound to the active site of phenylethanolamine N-methyltransferace (PNMT)” (Bioorg Med Chem Lett, 1992), this text covers Ki for one compound.

The structures appear in SMILES notation.

In this test the target is T1, Phenylethanolamine N-methyltransferase (Bos taurus, UniProt P10938).
T1 sequence (P10938 whole entry): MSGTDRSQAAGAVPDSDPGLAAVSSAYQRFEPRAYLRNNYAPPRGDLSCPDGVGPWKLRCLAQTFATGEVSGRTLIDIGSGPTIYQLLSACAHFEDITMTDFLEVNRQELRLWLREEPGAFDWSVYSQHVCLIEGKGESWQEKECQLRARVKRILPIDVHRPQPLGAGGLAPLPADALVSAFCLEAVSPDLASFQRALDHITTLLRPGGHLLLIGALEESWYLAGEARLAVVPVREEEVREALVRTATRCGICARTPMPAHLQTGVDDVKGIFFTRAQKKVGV
Kind of test: Inhibitory activity against bovine adrenal phenylethanolamine N-methyltransferase(PNMT).

With `CC(N)Cc1ccc(Cl)c(Cl)c1` (stereo unspecified), the affinity corresponds to a Ki of 6.7 µM.

The term Ki denotes a measure of affinity in units of concentration, obtained from inhibition or displacement.
